The record followed here is patent US8933029B2, “Antimicrobial and anti-inflammatory peptides” (Carrus Capital Corporation, priority 2001, dated 2015).

Marks after values point to notes of the source that are not given here. Ends that are not written are not given here.

One assay concerns TPA-induced ear edema. As to the kind of experiment: TPA ear edema model. Conditions: for Topical Dose (% change vs. vehicle) 1.0%: topical 1.0%; for Topical Dose (% change vs. vehicle) 1.0% / Topical Dose (% change vs. vehicle) 5 0% / Topical Dose (% change vs. vehicle) 0.1%: ear biopsy weight six hours after TPA; for Systemic Dose (% change vs. vehicle) 5 mg/kg: systemic 5 mg/kg; for Topical Dose (% change vs. vehicle) 0.1%: topical 0.1%.

Another assay relates to IFNγ. The experiment in a line: Inhibition of cytokine production in PHA-activated PBLs (ELISA). The class given is cell-based. Conditions: human PBLs, 10 μg/ml PHA, 48 hours, supernatant ELISA. How it is done:
(§1) Briefly, human PBLs are collected from a subject and plated at 10^6 cells/ml in serum free lymphocyte growth medium, stimulated with 10 μg/ml phytohemagglutinin (PHA) in the presence or absence of the candidate peptide. The PBLs are incubated at 37° C. at 5% CO2 for 48 h, at which point the supernatants were collected. An ELISA is performed on the supernatants to detect a cytokine of interest (e.g., IL-1, TNF-α, IFN-γ) and the cells are incubated for another 72 h to measure proliferation (see, e.g., Sigusch et al., J. Periodontol. 69:1098, 1998).
(§2) Human peripheral blood lymphocytes (PBLs) were collected from a healthy adult […] and plated at 10^6 cells/ml in serum free lymphocyte growth media in a 96-well plate. The PBLs were stimulated with 10 μg/ml PHA in the presence or absence of test sample and incubated at 37° C. at 5% CO2 for 48 hours. Collected and pooled supernatants were stored at −20° C., then assayed with commercially available ELISA kits (Endogen and Biosource) and assayed for viability with LDH (Bochringer Mannheim). The cells remaining after supernatant removal were returned to the incubator and proliferation was determined at 72 hours by using AlamarBlue (Alamar Bioscience). Compounds were tested at 1, 10, 100 and 1000 μg/ml. The peptides were effective at inhibiting cytokine production and PBL proliferation (Table 4), which indicates these peptides can function as anti-inflammatory agents.
On the technique in general: In an ELISA, binding on a coated surface is turned into a signal by an enzyme label.

The test system of the next assay is IL-10. The assay is described as above. The assay is classed as cell-based. Conditions: human PBLs, 10 μg/ml PHA, 48 hours, supernatant ELISA. How it is done: as §1, §2
For another assay, the system named is IL-12. The description is as above. The class given is cell-based. Conditions: human PBLs, 10 μg/ml PHA, 48 hours, supernatant ELISA. How it is done:
as §1, §2

The subject of the next assay is IL-1α. The description is as above. The class given is cell-based. As to conditions: human PBLs, 10 μg/ml PHA, 48 hours, supernatant ELISA. How it is done: as §1, §2
In another assay the test system is IL-2. The description is as above. The assay is classed as cell-based. Conditions: human PBLs, 10 μg/ml PHA, 48 hours, supernatant ELISA. How it is done:
as §1, §2

The test system of another assay is IL-4. The assay is described as above. The class given is cell-based. Conditions: human PBLs, 10 μg/ml PHA, 48 hours, supernatant ELISA. How it is done:
as §1, §2

For another assay, the system named is IL-6. Described as above. The class given is cell-based. As to conditions: human PBLs, 10 μg/ml PHA, 48 hours, supernatant ELISA. How it is done:
as §1, §2

The test system of a further assay is TNFα. Described as above. The assay is classed as cell-based. Conditions: human PBLs, 10 μg/ml PHA, 48 hours, supernatant ELISA. How it is done:
as §1, §2

Assay [1] has as its system oxazolone contact hypersensitivity (ear inflammation). The experiment in a line: Oxazolone contact hypersensitivity model. The class given is in vivo, CD-1 mice. Conditions: Dosage of 0.1%, applied to ear one hour after oxazolone challenge, ear punch weight after 24 h, 70% EtOH/30% propylene glycol vehicle. How it is done: Briefly, a 3.0% (w/v) solution of oxazolone in acetone/corn oil (5:1) is applied topically to the skin on the shaved abdomens of mice of approximately the same weight and approximately the same age on day 0. […] Twenty-four hours later a dermal biopsy punch of the treated ear is taken and weighed.
CD-1 mice are treated with 3% oxazolone (Sigma) (30 mg/ml) in corn oil:acetone on a shaved abdomen. All solutions are sonicated for 7 minutes. Five days later, the mice are challenged with a 2% oxazolone (20 mg/ml) in acetone on the left ear, with the right ear being left untreated (control). One hour after challenge, the candidate peptide in a 70% EtOH/30% propylene glycol formulation (vehicle) was applied to the left ear, with the right ear being left untreated. After 24 h, 7 mm ear punches are taken from each ear of the mice. The ear punches are placed on a scale and the difference between the treated and untreated ears were compared. The percent inhibition of inflammation was calculated by comparing the mean of each treated group to the control group. The positive control is hydrocortisone (a known anti-inflammatory agent). Most of the indolicidin peptides inhibited inflammation as well as hydrocortisone.

Where [2] appears, read: formulated in 50% ethanol/5 mM lactate buffer (*).
Where [3] appears, read: topical 5 0%, formulated in 50% ethanol/5 mM lactate buffer (*).

For the substance “I L T W P W W P W T T T (ILTWPWWPWTTT-{CN}) [Peptide 11B24CN]”, the “Topical Dose (% change vs. vehicle) 1.0%” value in the assay with TPA-induced ear edema (formulated in 95% ethanol) is −32%. Besides, the “Topical Dose (% change vs. vehicle) 5 0%” value with TPA-induced ear edema (topical 5.0%, formulated in 95% ethanol) was −64%.

With “ILRWVWWVWRRK-NH2 [Peptide 11F4CN, I L R W V W W V W R R K]”, the “Topical Dose (% change vs. vehicle) 1.0%” value with TPA-induced ear edema (formulated in 95% ethanol) is given as −55%.

Turning to “L R F L K W A F R L W K L (LRFLKWAFRLWKL-{CN}) [Peptide 11J45CN]”, the “Topical Dose (% change vs. vehicle) 1.0%” value in the assay with TPA-induced ear edema (formulated in 95% ethanol) is −69%.

On to “R L G G G G G G R R (RLGGGGGGRR-{CN}) [Peptide 11F83CN]”, for which the “Topical Dose (% change vs. vehicle) 1.0%” value in the assay with TPA-induced ear edema (formulated in 95% ethanol) was −28%.

For “R L L V W W V L R R (RLLVWWVLRR-{CN}) [Peptide 11F82CN]”, the “Topical Dose (% change vs. vehicle) 1.0%” value in the assay with TPA-induced ear edema (formulated in 95% ethanol) is listed as −62%.

Take “R L W V V V V W R R (RLWVVVVWRR-{CN}) [Peptide 11F65CN]”: in the assay on TPA-induced ear edema, the “Systemic Dose (% change vs. vehicle) 5 mg/kg” value is on record as −15%. Besides, the “Topical Dose (% change vs. vehicle) 1.0%” value with TPA-induced ear edema (formulated in 95% ethanol) was −94%.

As for “R L W V W W V W (RLWVWWVW-{CN}) [Peptide 11F11CN]”, in the assay with TPA-induced ear edema (setting [2]), the “Topical Dose (% change vs. vehicle) 0.1%” value is −49* % and the “Topical Dose (% change vs. vehicle) 1.0%” value is −75* %. In addition, in the assay with TPA-induced ear edema (formulated in 95% ethanol), the “Topical Dose (% change vs. vehicle) 1.0%” value is recorded as −87%.

As to “R L W W Q Q W W R R (RLWWQQWWRR-{CN}) [Peptide 11F60CN]”, the “Topical Dose (% change vs. vehicle) 1.0%” value in the assay with TPA-induced ear edema (formulated in 95% ethanol) is −41%.

In the case of “RLVVWVVWRR-NH2 [Peptide 11F66CN, R L V V W V V W R R]”, the “IC50 IFNγ” value in the assay on IFNγ was found to be 125 µg/mL. Besides, the “IC50 IL-10” value in the assay on IL-10 turned out to be 40 µg/mL. In addition, the “IC50 IL-12” value in the assay on IL-12 worked out at 280 µg/mL. Also, the “IC50 IL-1α” value in the assay with IL-1α is more than 1000 µg/mL. Besides, the “IC50 IL-2” value with IL-2 came to 480 µg/mL. Besides, the “IC50 IL-4” value with IL-4 was more than 1000 µg/mL. Further, the “IC50 IL-6” value in the assay with IL-6 came out at 1 µg/mL. The “IC50 TNFα” value in the assay with TNFα came out at 110 µg/mL. Moreover, in assay [1], the “% Inhibition of Inflammation” value is reported as 79.85%. Besides, in the assay on TPA-induced ear edema (setting [2]), the “Topical Dose (% change vs. vehicle) 0.1%” value is recorded as −17* % and the “Topical Dose (% change vs. vehicle) 1.0%” value is listed as −64* %. Besides, the “Topical Dose (% change vs. vehicle) 5 0%” value with TPA-induced ear edema (setting [3]) is given as −81* %.

On to RLVVWVVWRRX-OH [Peptide 11F110], for which, in the assay with TPA-induced ear edema (setting [2]), the “Topical Dose (% change vs. vehicle) 0.1%” value was −45* % and the “Topical Dose (% change vs. vehicle) 1.0%” value is −83* %. Besides, the “Topical Dose (% change vs. vehicle) 5 0%” value with TPA-induced ear edema (setting [3]) is on record as −87* %.

Regarding “RLWVWWVWRR-NH2 [Peptide 11F17CN, R L W V W W V W R R]”, the “IC50 IFNγ” value in the assay on IFNγ turned out to be 93 µg/mL. Besides, in the assay with IL-10, the “IC50 IL-10” value was 18 µg/mL. Also, the “IC50 IL-12” value in the assay on IL-12 worked out at 120 µg/mL. For the same substance, the “IC50 IL-1α” value in the assay on IL-1α was found to be 45 µg/mL. In the assay with IL-2, the “IC50 IL-2” value is more than 1000 µg/mL. Moreover, the “IC50 IL-4” value in the assay with IL-4 was determined as 220 µg/mL. The “IC50 IL-6” value in the assay with IL-6 was determined as 500 µg/mL. For the same substance, the “IC50 TNFα” value in the assay with TNFα stood at 70 µg/mL. In [1], the “% Inhibition of Inflammation” value came to 71.60%.

Turning to “RLWVWWVWRRK-NH2 [Peptide 11F12CN, R L W V W W V W R R K]”, the “IC50 IFNγ” value in the assay on IFNγ came out at 250 µg/mL. The “IC50 IL-10” value in the assay on IL-10 came out at 30 µg/mL. For the same substance, the “IC50 IL-12” value in the assay with IL-12 came to 120 µg/mL. In the assay with IL-1α, the “IC50 IL-1α” value is 500 µg/mL. For the same substance, in the assay on IL-2, the “IC50 IL-2” value is 570 µg/mL. For the same substance, the “IC50 IL-4” value in the assay with IL-4 came to 325 µg/mL. Also, the “IC50 IL-6” value in the assay with IL-6 came out at 140 µg/mL. The “IC50 TNFα” value in the assay with TNFα came to 68 µg/mL. The “% Inhibition of Inflammation” value in assay [1] is 86.50%. Further, in the assay on TPA-induced ear edema (formulated in 95% ethanol), the “Topical Dose (% change vs. vehicle) 1.0%” value is recorded as −56%.

As for “W (Dab) W W (Dab) P (Dab) W (Dab) W P (Dab) W [Peptide 11J68CN]”, the “Topical Dose (% change vs. vehicle) 1.0%” value with TPA-induced ear edema (setting [2]) was −55* %. Besides, in the assay with TPA-induced ear edema (setting [3]), the “Topical Dose (% change vs. vehicle) 5 0%” value was −85* %.

Turning to “W (Orn) W W (Orn) P (Orn) W (Orn) W P (Orn) W [Peptide 11J67CN]”, in the assay with TPA-induced ear edema (setting [2]), the “Topical Dose (% change vs. vehicle) 1.0%” value is recorded as −33* %. Also, in the assay with TPA-induced ear edema (setting [3]), the “Topical Dose (% change vs. vehicle) 5 0%” value was −66* %.

On to “W R L L K L A L R L L K W (WRLLKLALRLLKW-{CN}) [Peptide 11J44CN]”, for which, in the assay on TPA-induced ear edema, the “Systemic Dose (% change vs. vehicle) 5 mg/kg” value was −32%. The “Topical Dose (% change vs. vehicle) 1.0%” value in the assay with TPA-induced ear edema (formulated in 95% ethanol) was −88%.

As for “Y R Y Y K P K Y R Y P K Y (YRYYKPKYRYPKY-{CN}) [Peptide 11J32CN]”, the “Topical Dose (% change vs. vehicle) 1.0%” value in the assay with TPA-induced ear edema (formulated in 95% ethanol) is recorded as −30%.
